In patent US20130171254A1, “FAST DISSOLVING PHARMACEUTICAL COMPOSITION COMPRISING LORNOXICAM” (ABBOTT HEALTHCARE PRIVATE LIMITED, priority 2009, published 2013):
In brackets after ≈: the same amount, converted by molar mass. Read-outs that look alike come from different tables or passages of the source.

Columns and labels:
[1] = 8 mg dose, acidic conditions such as found in the stomach
[2] = 0.1 N HCl at room temperature (Bertelsen et al U.S. Pat. No. 6,713,089); cited from earlier work
[3] = cited from earlier work
[4] = cited from earlier work; remark: listed apart in the source
[5] = cited from earlier work; remark: listed apart in the source

| SMILES | volume of acid required for complete dissolution [1] | solubility [2] | pKa ([3]; basic pyrimido group) | pKa [3] | pKa ([3]; enolic group) | apparent partition coefficient ([3]; n-octanol/buffer pH 7.4) | synovial fluid: plasma AUC ratios ([4]; after administration of 4 mg twice daily) | Tmax, range ([4]; fasted subjects) | time to reach peak plasma concentrations (Tmax) ([4]; fasted subjects) | half-life ([4]; in vivo) | median Tmax ([4]; new formulations containing 40% bicarbonate, co-processed intimately (US 20070218128, Bertelsen)) | median Tmax ([4]; standard tablets (US 20070218128, Bertelsen)) | solubility (physchem; pH 1.2, simulated gastric fluid) | solubility (physchem; water) | mean Tmax ([5]; 25 mg film-coated tablets with bicarbonate) | mean Tmax ([5]; 50 mg film-coated tablets with bicarbonate) | mean Tmax ([5]; standard immediate release tablets) |
| --- | --- | --- | --- | --- | --- | --- | --- | --- | --- | --- | --- | --- | --- | --- | --- | --- | --- |
| CN1C(=C(O)Nc2ccccn2)C(=O)c2sc(Cl)cc2S1(=O)=O (stereo in doubt) [lornoxicam, (3E)-6-chloro-3-[hydroxy(pyridin-2-ylamino)methylene]-2-methyl-2,3-dihydro-4H-thieno[2,3-e][1,2]thiazin-4-one 1,1-dioxide] | more than 1400 ml | less than 1 mg/100 ml | 5.5 | 4.7 | 1-2 | 1.8 | ~0.5 | 84 to 360 min | around 2.5 hours | approximately 4 hours | 30 min | 150 min | 5.6 µg/mL (≈ 15.1 µM) | 10.4 µg/mL (≈ 28 µM) | – | – | – |
| O=C(O)Cc1ccccc1Nc1c(Cl)cccc1Cl [diclofenac] | – | – | – | – | – | – | – | – | – | – | – | – | – | – | 21.2 min | 29.8 min | 50.8 min |
